Key:
5-HT2C receptor = target: T1, 5-HT2C receptor (Homo sapiens, UniProt P28335); test: radioligand binding assay for 5-HT2C receptor ([3H]-mesulergine); conditions: choroid plexus or recombinant 5-HT2C receptor expressed in CHO-K1 cells; for IC50: read-out: binding affinity to 5-HT2C serotonin receptor expressed as IC50 value; for Ki: read-out: binding affinity to 5-HT2C serotonin receptor, Ki value
T1 construct: expressed in transfected cells; host or cells: CHO-K1 (or choroid plexus tissue)
T1 sequence (P28335 33-458): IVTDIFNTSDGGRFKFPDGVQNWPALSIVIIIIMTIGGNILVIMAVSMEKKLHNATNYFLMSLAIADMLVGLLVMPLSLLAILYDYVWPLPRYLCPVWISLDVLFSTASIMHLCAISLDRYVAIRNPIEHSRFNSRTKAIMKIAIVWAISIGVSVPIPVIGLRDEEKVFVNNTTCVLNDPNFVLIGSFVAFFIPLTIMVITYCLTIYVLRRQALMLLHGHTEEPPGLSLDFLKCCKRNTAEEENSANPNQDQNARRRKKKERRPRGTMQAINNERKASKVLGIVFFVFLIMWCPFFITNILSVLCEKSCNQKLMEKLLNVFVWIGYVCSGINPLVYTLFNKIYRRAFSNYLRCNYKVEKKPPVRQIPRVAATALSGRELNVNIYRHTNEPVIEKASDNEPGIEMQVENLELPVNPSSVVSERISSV
Experimental: (§1) The effect of the compounds of the present invention on the neurochemical steady state was determined by in vitro investigations such as a radionuclide-marked radioligand binding assay for 5-HT2A (Bonhaus D. W. Br. J. Pharmacol. 1995, 115:622; Saucier C. J. Neurochem. 1997, 68:1998) and 5-HT2C receptors (Wolf W. A. J. Neurochem. 1997, 69:1449), in vitro binding assay for al receptor (Thomson W. and Donn R. Arthritis Res. 2002, 4: 302-306) and by in vivo investigations in a tail suspension test (Vogel H. G. and Vogel W. H. Drug Discovery and Evaluation Pharmacological Assays, Springer 1997, 304), in amphethamine-induced hyperlocomotion in mice (Millan M. J. et al, 1998 J Pharmacol. Exp. Ther. 287: 167-186) in a forced swim test in mice (Porsolt R. D. et al. Arch. Int. Pharmacodyn. 1977, 229:327-336), in meta-chlorophenyl piperazine (m-CPP) test on rats (Drug Dev. Res. 1989, 18:119-144) and in apomorphine, tryptamine, norepinephrine (ATN) test in rats (Arch. Int. Pharmacodyn. 1977, 227:238-253).
(§2) A small concentration of a radioligand having a great affinity for binding to a receptor was incubated with a tissue sample enriched with a certain receptor (1-5 mg of tissue) in a buffered medium (0.2-5 μL). Recombinant human HT2A and HT2C receptors were expressed in CHO-K1 or COS-7 cells and were also used for competitive binding. During incubation the radioligand bound to the receptor. When a binding balance was achieved, the receptors to which the radioligand was bound were separated from those to which said ligand was not bound, and the radioactivity of the receptor/radioligand complex was measured. The interaction of the tested compounds with receptors was tested in competitive binding experiments. Various concentrations of tested compounds were added to the incubation mixture containing a prepared tissue enriched with corresponding receptors and the radioligand. The radioligand binding was inhibited by the test compounds proportionally to the affinity of a certain compound for the receptor and to the concentration of the compound.
The radioligand used for the determination of binding to 5-HT2C receptor was [^3H]-mesulergine and the tissue used was choroid plexus or recombinant 5-HT2C receptor expressed in CHO-K1 cells.

5-HT2A receptor = target: T2, 5-HT2A receptor (Homo sapiens, UniProt P28223); test: radioligand binding assay for 5-HT2A receptor ([3H]-ketanserin); conditions: human cortex or recombinant 5-HT2A receptor expressed in CHO-K1 cells; for IC50: read-out: binding affinity to 5-HT2A serotonin receptor expressed as IC50 value; for Ki: read-out: binding affinity to 5-HT2A serotonin receptor, Ki value
T2 construct: expressed in transfected cells; host or cells: CHO-K1 (or human cortex tissue)
T2 sequence (P28223 whole entry): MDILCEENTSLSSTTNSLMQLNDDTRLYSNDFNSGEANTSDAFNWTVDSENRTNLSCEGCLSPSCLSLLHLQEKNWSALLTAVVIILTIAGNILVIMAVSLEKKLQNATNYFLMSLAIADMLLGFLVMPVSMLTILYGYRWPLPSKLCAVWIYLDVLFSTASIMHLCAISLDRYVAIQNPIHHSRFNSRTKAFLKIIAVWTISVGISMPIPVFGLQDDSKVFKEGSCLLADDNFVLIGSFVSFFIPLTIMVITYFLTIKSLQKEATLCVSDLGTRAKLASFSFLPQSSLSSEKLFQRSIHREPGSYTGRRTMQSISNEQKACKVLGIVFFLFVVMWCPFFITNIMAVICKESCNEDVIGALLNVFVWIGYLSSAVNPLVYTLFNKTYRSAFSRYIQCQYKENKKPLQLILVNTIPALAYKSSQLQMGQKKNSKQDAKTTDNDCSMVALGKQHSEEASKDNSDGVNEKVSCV
Experimental: as §1, §2
The radioligand used for the determination of binding to 5-HT2A receptor was [^3H]-ketanserin and the tissue used was human cortex or recombinant 5-HT2A receptor expressed in CHO-K1 cells.

σ1 receptor = target: T3, σ1 receptor (Homo sapiens, UniProt Q99720); test: in vitro binding affinity to σ1 receptor, Jurkat cell membranes, [3H]haloperidol; conditions: for IC50: read-out: binding affinity to σ1 receptor expressed as IC50 value
T3 construct: endogenous in cells; host or cells: Jurkat cell membranes
T3 sequence (Q99720 whole entry): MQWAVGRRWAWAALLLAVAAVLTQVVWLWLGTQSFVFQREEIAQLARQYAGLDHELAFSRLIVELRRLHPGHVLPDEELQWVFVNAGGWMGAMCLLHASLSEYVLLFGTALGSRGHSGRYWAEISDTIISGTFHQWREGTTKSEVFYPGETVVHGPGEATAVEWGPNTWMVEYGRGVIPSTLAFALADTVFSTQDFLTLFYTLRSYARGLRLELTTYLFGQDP
Experimental: as §1
Jurkat cell were grown in medium, RPMI supplemented with 10% fetal bovine serum, 100 U/ml penicillin and 100 μg/ml streptomycin, collected and their suspension homogenized. After centrifugation, the membrane fraction was separated, resuspended in phosphate buffer (pH=7.5) and stored in small aliquots in liquid nitrogen until use. Binding of different radiolabeled ligands to Jurkat cell membranes was measured as described previously (Ramamoorthy et al., 1995). To characterize the σ binding sites in the Jurkat cell line, [^3H]haloperidol was first used as the ligand. Haloperidol is a high affinity ligand to both type 1 and type 2 σ-receptors. The binding assays were done using Jurkat cell membranes in the presence of [^3H]haloperidol ([…]) alone to determine the total binding, and in the presence of [^3H]haloperidol (10 nM) and unlabeled haloperidol (10 μM) to determine the nonspecific binding. Membranes were incubated with ligands in phosphate buffer for 3 hours at room temperature. After the filter had been washed, radioactivity associated with the filter was determined by liquid scintillation spectrometry.

mice = test: amphetamine-induced hyperlocomotion in mice; assay type: in vivo; conditions: male Swiss OFA mice, per os in saline, test doses of 1 mg/kg and 0,1 mg/kg, dexamphetamine sulphate 2 mg/kg i.p.
Experimental: Male Swiss OFA mice of a weight 30-35 g were treated with either vehicle (saline) or test compounds 30 minutes prior to hyperlocomotion induction. Dexamphetamine sulphate was administered intraperitoneally at 2 mg/kg. Thirty minutes later, animals were placed in a wooden box 80×80 cm^2 in a room with low light intensity (100 lux) for locomotor activity recording. Locomotor activity was determined during a 30 min period using a video image analyzer. Total duration of movement, occurence of movement and total distance travelled were measured. Haloperidol was tested at the dose of 0,25 mg/kg (prepared in 0.5% methylcellulose) and served as reference substance.
Compounds were considered as active if in a dose of 10 mg/kg reduced amphetamine-induced hyperlocomotion in experimental animals for 30% and more when compared to vehicle treated control group.

| Molecule | IC50 (5-HT2C receptor) | Ki (5-HT2C receptor) | IC50 (5-HT2A receptor) | Ki (5-HT2A receptor) | Ki (σ1 receptor) | IC50 (σ1 receptor) | inhibition of amphetamine-induced hyperlocomotion (mice) |
| --- | --- | --- | --- | --- | --- | --- | --- |
| NCCCOCc1scc2c1-c1cc(Cl)ccc1Oc1ccccc1-2 | < 200 nM | < 100 nM | < 200 nM | < 100 nM | – | – | – |
| CN(C)CCOCc1scc2c1-c1ccccc1Oc1ccccc1-2 [dimethyl-[2-(8-oxa-2-thia-dibenzo[e,h]azulen-1-ylmethoxy)-ethyl]-amine] | < 200 nM | < 100 nM | < 200 nM | < 100 nM | < 100 nM | < 200 nM | – |
| CN(C)CCCOCc1scc2c1-c1ccccc1Oc1ccccc1-2 [dimethyl-[3-(8-oxa-2-thia-dibenzo[e,h]azulen-1-ylmethoxy)-propyl]-amine] | < 200 nM | < 100 nM | < 200 nM | < 100 nM | – | – | – |
| [2-(2,8-dithia-dibenzo[e,h]azulen-1-ylmethoxy)-ethyl]-dimethyl-ammonium citrate | – | – | – | – | – | – | 40-60% |

Continued, in another order:

| IC50 (5-HT2C receptor) | Ki (5-HT2C receptor) | IC50 (5-HT2A receptor) | Ki (5-HT2A receptor) | Ki (σ1 receptor) | IC50 (σ1 receptor) | Molecule | inhibition of amphetamine-induced hyperlocomotion (mice) |
| --- | --- | --- | --- | --- | --- | --- | --- |
| < 200 nM | < 100 nM | < 200 nM | < 100 nM | – | – | NCCCOCc1scc2c1-c1ccccc1Oc1ccccc1-2 [3-(8-oxa-2-thia-dibenzo[e,h]azulen-1-ylmethoxy)-propylamine] | – |
| < 200 nM | < 100 nM | < 200 nM | < 100 nM | < 100 nM | < 200 nM | CN(C)CCOCc1scc2c1-c1ccccc1Sc1ccccc1-2 [[2-(2,8-dithia-dibenzo[e,h]azulen-1-ylmethoxy)-ethyl]-dimethyl-amine] | – |
| < 200 nM | < 100 nM | < 200 nM | < 100 nM | < 100 nM | < 200 nM | CN(C)CCOCc1scc2c1-c1ccccc1Oc1ccc(Cl)cc1-2 [[2-(5-chloro-8-oxa-2-thia-dibenzo[e,h]azulen-1-ylmethoxy)-ethyl]-dimethyl-amine] | – |
| < 200 nM | < 100 nM | < 200 nM | < 100 nM | < 100 nM | < 200 nM | CN(C)CCCOCc1scc2c1-c1ccccc1Sc1ccccc1-2 [[3-(2,8-dithia-dibenzo[e,h]azulen-1-ylmethoxy)-propyl]-dimethyl-amine] | – |

Source: patent publication US20060241099A1 (Pliva-Istrazivacki Institut d.o.o., priority 2003, published 2006)
